These results are taken from ChEMBL document CHEMBL1909046, “DrugMatrix in vitro pharmacology data”.

Series [1] concerns the target Sigma non-opioid intracellular receptor 1 (Homo sapiens, UniProt Q99720). The experiment in a line: DRUGMATRIX: Sigma1 radioligand binding (ligand: [3H] Haloperidol). The format is cell membranes, Jurkat, Membrane. Conditions: jurkat; Not Active = under 50% inhibition at 10 µM.
Series [2] has as its target T1, 3-hydroxy-3-methylglutaryl-coenzyme A reductase (Homo sapiens, UniProt P04035).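 Note: enzyme inhibition assay of HMG-CoA reductase using radiolabeled [14C]HMG-CoA as substrate; in other assays of this panel Not Active means under 50% inhibition at 10 µM.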
T1 sequence (P04035 whole entry): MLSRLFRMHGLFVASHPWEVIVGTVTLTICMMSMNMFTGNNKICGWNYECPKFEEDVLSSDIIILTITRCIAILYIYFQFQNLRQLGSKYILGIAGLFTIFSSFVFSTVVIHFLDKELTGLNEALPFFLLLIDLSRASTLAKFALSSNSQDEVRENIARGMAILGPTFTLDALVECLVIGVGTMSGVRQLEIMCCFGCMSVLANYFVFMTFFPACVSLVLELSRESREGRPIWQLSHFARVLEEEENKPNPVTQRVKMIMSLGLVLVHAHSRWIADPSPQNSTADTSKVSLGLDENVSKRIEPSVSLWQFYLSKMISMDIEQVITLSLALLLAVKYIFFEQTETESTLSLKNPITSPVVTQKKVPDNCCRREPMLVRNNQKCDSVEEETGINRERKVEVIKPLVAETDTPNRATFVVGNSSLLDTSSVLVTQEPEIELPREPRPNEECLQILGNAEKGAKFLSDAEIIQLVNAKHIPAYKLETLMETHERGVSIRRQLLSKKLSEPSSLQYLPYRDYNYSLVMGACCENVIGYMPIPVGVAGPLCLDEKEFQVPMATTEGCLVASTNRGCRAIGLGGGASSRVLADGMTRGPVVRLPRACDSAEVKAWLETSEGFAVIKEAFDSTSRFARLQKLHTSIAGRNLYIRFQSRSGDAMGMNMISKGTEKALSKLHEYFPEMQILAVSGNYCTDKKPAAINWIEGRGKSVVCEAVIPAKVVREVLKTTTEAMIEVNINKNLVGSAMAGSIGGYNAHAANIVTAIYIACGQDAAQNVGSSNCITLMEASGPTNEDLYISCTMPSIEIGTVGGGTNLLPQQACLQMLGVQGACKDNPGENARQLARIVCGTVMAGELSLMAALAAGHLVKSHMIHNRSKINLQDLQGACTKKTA
Details: species or system Escherichia coli.

Series [3] deals with T2, Cholecystokinin receptor type A (Homo sapiens, UniProt P32238).
T2 sequence (P32238 whole entry): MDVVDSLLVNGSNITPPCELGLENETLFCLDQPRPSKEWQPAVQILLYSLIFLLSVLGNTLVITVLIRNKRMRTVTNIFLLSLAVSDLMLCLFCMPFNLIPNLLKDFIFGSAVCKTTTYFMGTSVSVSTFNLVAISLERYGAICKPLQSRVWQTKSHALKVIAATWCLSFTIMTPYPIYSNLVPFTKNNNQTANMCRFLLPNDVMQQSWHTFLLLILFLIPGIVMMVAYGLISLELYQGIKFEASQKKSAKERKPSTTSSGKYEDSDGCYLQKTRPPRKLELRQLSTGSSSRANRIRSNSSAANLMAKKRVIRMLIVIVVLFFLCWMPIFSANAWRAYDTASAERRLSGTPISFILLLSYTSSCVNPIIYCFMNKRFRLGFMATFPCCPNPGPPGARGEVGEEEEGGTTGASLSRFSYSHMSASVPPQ
The format is cell membranes, Membrane. Conditions: 1321-n1.

In a further series the target is T3, Neutrophil elastase (Homo sapiens, UniProt P08246).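 Note: inhibition of neutrophil elastase enzyme activity, measured with a p-nitroanilide-linked peptide substrate; in other assays of this panel Not Active means under 50% inhibition at 10 µM.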
T3 sequence (P08246 whole entry): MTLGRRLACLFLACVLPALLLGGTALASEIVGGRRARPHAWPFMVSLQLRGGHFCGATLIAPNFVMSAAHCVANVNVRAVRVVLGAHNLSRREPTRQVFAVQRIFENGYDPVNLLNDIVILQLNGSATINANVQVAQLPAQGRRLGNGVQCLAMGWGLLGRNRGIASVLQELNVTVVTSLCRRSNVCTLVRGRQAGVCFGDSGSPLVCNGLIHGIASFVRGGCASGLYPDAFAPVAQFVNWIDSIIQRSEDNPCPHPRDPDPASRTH
Type of series: tissue-based.

Series [4] in a line: DRUGMATRIX: Potassium Channel [KATP] radioligand binding (ligand: [3H] Glyburide). Type of series: cell membranes, Membrane. Conditions: hit-t15; Not Active = under 50% inhibition at 10 µM.
The target in another series is T4, Progesterone receptor (Bos taurus, UniProt Q690N0).
T4 sequence (Q690N0 whole entry): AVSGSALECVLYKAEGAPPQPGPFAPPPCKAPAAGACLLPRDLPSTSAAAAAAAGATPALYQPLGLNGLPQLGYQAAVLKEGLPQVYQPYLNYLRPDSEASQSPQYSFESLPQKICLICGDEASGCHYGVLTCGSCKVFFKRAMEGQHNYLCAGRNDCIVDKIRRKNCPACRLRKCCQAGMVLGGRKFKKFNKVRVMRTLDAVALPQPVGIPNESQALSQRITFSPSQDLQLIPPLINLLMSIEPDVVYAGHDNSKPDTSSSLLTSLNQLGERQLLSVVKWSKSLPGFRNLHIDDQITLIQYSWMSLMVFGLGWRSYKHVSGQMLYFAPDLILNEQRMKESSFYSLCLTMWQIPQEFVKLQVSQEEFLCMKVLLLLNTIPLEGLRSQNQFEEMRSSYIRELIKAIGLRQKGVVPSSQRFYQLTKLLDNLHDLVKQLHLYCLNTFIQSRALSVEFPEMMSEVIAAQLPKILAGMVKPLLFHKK
The experiment in a line: DRUGMATRIX: Progesterone radioligand binding (ligand: [3H] R-5020). The format is tissue-based, Uterus. Conditions: Not Active = under 50% inhibition at 10 µM.

For series [5], the target named is Epidermal growth factor receptor (Homo sapiens, UniProt P00533). The experiment in a line: DRUGMATRIX: Protein Tyrosine Kinase, EGF Receptor enzyme inhibition (substrate: Poly(Glu:Tyr)). Conditions: Not Active = under 50% inhibition at 10 µM. Type of series: cell-based, Insect cells.
Sequence of Epidermal growth factor receptor (P00533 whole entry): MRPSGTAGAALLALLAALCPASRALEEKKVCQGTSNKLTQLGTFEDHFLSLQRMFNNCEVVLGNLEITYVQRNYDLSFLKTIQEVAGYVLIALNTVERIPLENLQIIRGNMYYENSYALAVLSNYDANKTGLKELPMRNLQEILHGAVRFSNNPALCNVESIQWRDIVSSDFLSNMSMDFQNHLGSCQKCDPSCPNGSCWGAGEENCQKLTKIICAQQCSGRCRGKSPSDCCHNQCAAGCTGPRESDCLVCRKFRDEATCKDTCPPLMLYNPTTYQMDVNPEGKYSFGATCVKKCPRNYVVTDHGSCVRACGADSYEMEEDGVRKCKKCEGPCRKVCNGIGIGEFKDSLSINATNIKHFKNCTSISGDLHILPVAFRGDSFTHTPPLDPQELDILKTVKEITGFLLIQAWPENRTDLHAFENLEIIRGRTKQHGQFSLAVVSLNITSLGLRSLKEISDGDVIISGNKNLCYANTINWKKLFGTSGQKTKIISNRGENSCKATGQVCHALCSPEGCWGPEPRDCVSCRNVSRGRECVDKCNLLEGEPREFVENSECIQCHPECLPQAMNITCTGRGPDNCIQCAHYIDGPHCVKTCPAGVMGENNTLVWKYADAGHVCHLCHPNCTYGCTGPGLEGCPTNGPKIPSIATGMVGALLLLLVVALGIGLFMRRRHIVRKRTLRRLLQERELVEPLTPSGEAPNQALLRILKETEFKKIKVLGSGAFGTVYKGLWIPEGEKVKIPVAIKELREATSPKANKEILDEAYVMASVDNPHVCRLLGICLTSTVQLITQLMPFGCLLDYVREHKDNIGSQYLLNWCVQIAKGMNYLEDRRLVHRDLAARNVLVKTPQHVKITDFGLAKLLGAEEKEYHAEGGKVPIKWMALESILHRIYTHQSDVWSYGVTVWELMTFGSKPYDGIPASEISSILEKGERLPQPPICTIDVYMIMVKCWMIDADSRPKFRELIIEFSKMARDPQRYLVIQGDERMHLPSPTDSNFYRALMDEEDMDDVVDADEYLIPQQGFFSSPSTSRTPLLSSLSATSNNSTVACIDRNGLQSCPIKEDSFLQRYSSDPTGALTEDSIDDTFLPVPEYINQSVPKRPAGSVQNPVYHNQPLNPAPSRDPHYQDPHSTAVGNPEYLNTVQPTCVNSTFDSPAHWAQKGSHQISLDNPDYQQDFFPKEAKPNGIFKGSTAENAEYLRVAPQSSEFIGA
The target of series [6] is Vascular endothelial growth factor receptor 1 (Homo sapiens, UniProt P17948). The format is cell-based. Conditions: huvec. Note: in other assays of this panel Not Active means under 50% inhibition at 10 µM.
Sequence of Vascular endothelial growth factor receptor 1 (P17948 whole entry): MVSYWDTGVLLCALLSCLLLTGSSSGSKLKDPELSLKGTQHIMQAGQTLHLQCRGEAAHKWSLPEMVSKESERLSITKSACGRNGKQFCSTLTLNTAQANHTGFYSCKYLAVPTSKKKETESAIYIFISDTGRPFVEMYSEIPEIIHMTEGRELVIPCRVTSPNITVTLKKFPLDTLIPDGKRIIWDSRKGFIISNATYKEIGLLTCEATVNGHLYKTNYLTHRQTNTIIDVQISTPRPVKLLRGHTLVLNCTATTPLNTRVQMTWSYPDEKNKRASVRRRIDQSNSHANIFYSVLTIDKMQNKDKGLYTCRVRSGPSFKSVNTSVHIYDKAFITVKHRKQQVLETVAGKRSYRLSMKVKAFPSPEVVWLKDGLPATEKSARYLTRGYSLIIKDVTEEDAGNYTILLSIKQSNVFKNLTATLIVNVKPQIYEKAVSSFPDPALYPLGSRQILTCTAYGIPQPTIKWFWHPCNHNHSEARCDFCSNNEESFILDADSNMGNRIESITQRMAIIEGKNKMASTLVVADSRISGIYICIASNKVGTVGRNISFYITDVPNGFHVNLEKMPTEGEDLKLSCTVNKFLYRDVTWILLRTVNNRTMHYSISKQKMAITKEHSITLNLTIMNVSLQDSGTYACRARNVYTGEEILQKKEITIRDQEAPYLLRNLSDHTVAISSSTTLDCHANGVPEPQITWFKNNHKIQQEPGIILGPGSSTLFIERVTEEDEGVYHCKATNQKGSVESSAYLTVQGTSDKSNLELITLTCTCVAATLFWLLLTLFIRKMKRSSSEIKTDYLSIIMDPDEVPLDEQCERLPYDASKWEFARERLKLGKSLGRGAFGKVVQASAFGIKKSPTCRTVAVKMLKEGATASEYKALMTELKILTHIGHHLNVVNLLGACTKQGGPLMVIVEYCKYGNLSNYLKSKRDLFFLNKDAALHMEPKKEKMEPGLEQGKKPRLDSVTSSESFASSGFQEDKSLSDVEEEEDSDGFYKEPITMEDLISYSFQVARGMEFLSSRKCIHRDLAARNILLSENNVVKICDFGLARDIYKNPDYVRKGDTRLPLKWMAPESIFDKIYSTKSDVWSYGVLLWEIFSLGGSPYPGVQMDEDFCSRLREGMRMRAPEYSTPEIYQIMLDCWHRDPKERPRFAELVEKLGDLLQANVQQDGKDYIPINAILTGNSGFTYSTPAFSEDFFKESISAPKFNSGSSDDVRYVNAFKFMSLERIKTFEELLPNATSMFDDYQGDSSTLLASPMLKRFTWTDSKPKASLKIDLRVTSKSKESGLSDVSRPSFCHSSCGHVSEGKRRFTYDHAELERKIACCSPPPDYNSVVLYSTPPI
A further series deals with Cytochrome P450 2C19 (Homo sapiens, UniProt P33261). Conditions: bti-tn-5b1-4.
Sequence of Cytochrome P450 2C19 (P33261 whole entry): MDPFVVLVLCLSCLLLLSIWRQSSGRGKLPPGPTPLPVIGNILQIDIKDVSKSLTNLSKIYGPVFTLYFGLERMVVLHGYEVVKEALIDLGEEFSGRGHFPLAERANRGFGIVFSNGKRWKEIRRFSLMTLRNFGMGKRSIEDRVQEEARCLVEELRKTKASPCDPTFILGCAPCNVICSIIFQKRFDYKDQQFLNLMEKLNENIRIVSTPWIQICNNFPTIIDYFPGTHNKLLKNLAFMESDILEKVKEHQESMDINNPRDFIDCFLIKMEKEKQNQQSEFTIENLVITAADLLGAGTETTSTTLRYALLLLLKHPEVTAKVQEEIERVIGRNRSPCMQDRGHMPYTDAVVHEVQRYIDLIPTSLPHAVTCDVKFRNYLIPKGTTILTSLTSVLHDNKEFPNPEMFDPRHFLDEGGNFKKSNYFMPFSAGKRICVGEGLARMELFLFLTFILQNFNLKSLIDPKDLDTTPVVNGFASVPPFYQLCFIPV

SMILES strings stand for the structures.

What is called IC50 is the concentration that inhibits the measured activity by half.

Sequence of Sigma non-opioid intracellular receptor 1 (Q99720 whole entry): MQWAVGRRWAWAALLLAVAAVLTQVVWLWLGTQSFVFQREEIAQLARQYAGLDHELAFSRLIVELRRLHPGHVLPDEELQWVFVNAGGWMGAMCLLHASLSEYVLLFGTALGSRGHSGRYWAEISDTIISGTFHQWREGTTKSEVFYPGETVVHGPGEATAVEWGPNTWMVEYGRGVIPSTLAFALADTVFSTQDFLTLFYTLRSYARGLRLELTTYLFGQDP

Take `CC1(C)S[C@@H]2[C@H](NC(=O)[C@H](NC(=O)N3CCNC3=O)c3ccccc3)C(=O)N2[C@H]1C(=O)O` [AZLOCILLIN]: the IC50 result (in [1]; in series [2]; in [3]; on Neutrophil elastase; in series [4]; at Progesterone receptor) was “Not Active” in each case. Moreover, the IC50 result (in series [5] (insect cells); in series [6]; on Cytochrome P450 2C19) was “Not Active” in each case. Further, the Ki result (in [4]; at Cytochrome P450 2C19) was “Not Active” each time.

As to `CCOC(=O)c1ccc(N)cc1` [BENZOCAINE], the IC50 entry (in series [1]; in series [2]; in [3]; on Neutrophil elastase; in series [4]; on Progesterone receptor) was “Not Active” throughout. The IC50 entry (in series [5] (insect cells); in [6]; against Cytochrome P450 2C19) was “Not Active” in each case. Moreover, the Ki result (in series [4]; at Cytochrome P450 2C19) was “Not Active” throughout.

On to `OCc1ccccc1` [BENZYL ALCOHOL], for which the half-inhibitory concentration (IC50) entry (in series [1]; in series [2]; in series [3]; against Neutrophil elastase; in [4]; at Progesterone receptor) was “Not Active” in each case. Besides, the IC50 result (in [6]; against Cytochrome P450 2C19) was “Not Active” throughout. Moreover, the Ki result (in series [4]; in series [5] (insect cells); on Cytochrome P450 2C19) was “Not Active” throughout.

`CC(C)(Oc1ccc(CCNC(=O)c2ccc(Cl)cc2)cc1)C(=O)O` [BEZAFIBRATE]: the IC50 result (in [1]; in [2]; in series [3]; against Neutrophil elastase; in [4]; at Progesterone receptor) was “Not Active” each time. For the same compound, the IC50 entry (in series [5] (insect cells); in series [6]; on Cytochrome P450 2C19) was “Not Active” throughout. For the same compound, the Ki entry (in series [4]; at Cytochrome P450 2C19) was “Not Active” in each case.

`CCCC[C@@H](CC)COC(=O)c1ccccc1C(=O)OC[C@@H](CC)CCCC` [BIS(2-ETHYLHEXYL)PHTHALATE]: the IC50 entry (in series [1]; in series [2]; in series [3]; against Neutrophil elastase; in series [4]; on Progesterone receptor) was “Not Active” in each case. For the same compound, the IC50 result (in series [5] (insect cells); in [6]; against Cytochrome P450 2C19) was “Not Active” in each case. The Ki entry (in series [4]; on Cytochrome P450 2C19) was “Not Active” throughout.

With `Oc1c(Cl)cc(Cl)cc1Sc1cc(Cl)cc(Cl)c1O` [BITHIONOL], the IC50 entry (in [1]; in series [2]; in series [3]; at Neutrophil elastase; in series [4]; on Progesterone receptor) was “Not Active” in each case. Further, the IC50 in [5] (read-out: IC50) is 614 nM; in [6] it was “Not Active”; on Cytochrome P450 2C19, “Not Active”. In addition, the Ki result (in [4]; on Cytochrome P450 2C19) was “Not Active” each time.

Turning to `Brc1ccccc1` [BROMOBENZENE], the IC50 entry (in series [1]; in series [2]; in [3]; against Neutrophil elastase; in series [4]; at Progesterone receptor) was “Not Active” each time. Besides, the IC50 result (in [5] (insect cells); in series [6]; on Cytochrome P450 2C19) was “Not Active” in each case. In addition, the Ki result (in [4]; on Cytochrome P450 2C19) was “Not Active” throughout.

With `CC[C@@]1(O)C(=O)OCc2c1cc1n(c2=O)Cc2cc3ccccc3nc2-1` [CAMPTOTHECIN], the IC50 entry (in [1]; in [2]; in series [3]; on Neutrophil elastase; in series [4]; at Progesterone receptor) was “Not Active” throughout. Besides, the IC50 entry (in series [5] (insect cells); in [6]; against Cytochrome P450 2C19) was “Not Active” each time. Moreover, the Ki entry (in [4]; on Cytochrome P450 2C19) was “Not Active” each time.

Take `COCc1c(C(C)C)nc(C(C)C)c(/C=C/[C@@H](O)C[C@@H](O)CC(=O)O)c1-c1ccc(F)cc1` [CERIVASTATIN]: the IC50 result is “Not Active” in [1]; 0.085 nM in [2] (read-out: IC50); “Not Active” in [3]; “Not Active” on Neutrophil elastase; “Not Active” in [4]; “Not Active” on Progesterone receptor. Besides, the IC50 result (in [5] (insect cells); in series [6]; against Cytochrome P450 2C19) was “Not Active” each time. The Ki result (in series [4]; on Cytochrome P450 2C19) was “Not Active” in each case.

For the compound `O=C1CCc2cc(OCCCCc3nnnn3C3CCCCC3)ccc2N1` [CILOSTAZOL], the IC50 result (in series [1]; in series [2]; in series [3]; on Neutrophil elastase; in series [4]; on Progesterone receptor) was “Not Active” in each case. The IC50 entry (in [5] (insect cells); in series [6]; at Cytochrome P450 2C19) was “Not Active” in each case. Besides, the Ki entry (in series [4]; on Cytochrome P450 2C19) was “Not Active” in each case.
